Measured values: PMC6273687, “Design, Synthesis and Biological Evaluation of Novel Primaquine-Cinnamic Acid Conjugates of the Amide and Acylsemicarbazide Type” (Molecules, 2016)

How the values were obtained:
[1] = tested on: CEM acute lymphoblastic leukemia cell line; assay: Growth inhibition of tumor cell lines in vitro (MTT / cell counting); assay type: cell-based; settings: Homo sapiens, 96 h, 4 days
Protocol: (§1) The experiments were carried out on a murine lymphocytic leukemia cell line (L1210) and five human tumor cell lines: CEM, HeLa, NCI-H460, SW 620 and MCF-7. The cells were cultured as monolayers and maintained in Dulbecco′s modified Eagle medium (DMEM) supplemented with 10% fetal bovine serum (FBS), 2 mM L-glutamine, 100 U/mL penicillin and 100 μg/mL streptomycin in a humidified atmosphere with 5% CO2 at 37 °C.
(§2) The growth inhibition activity of the compounds was assessed as described previously. The cell lines were inoculated onto a series of standard 96-well microtiter plates on day 0, at 1.5 × 10^4 cells/mL (SW 620, H460) to 2.5 × 10^4 cells/mL (MCF-7, CEM and L1210), depending on the growth of the tumor cell line. Test agents were then added in ten-fold dilutions (10^−8 to 10^−4 M) and the cell cultures were then incubated for 3–4 days with 5% CO2 at 37 °C. Working dilutions of the compounds were freshly prepared on the day of testing.
(§3) After 3 (MCF-7, SW 620, NCI-H460) or 4 days (CEM, L1210), the cell growth rate was evaluated first light microscopically, then by viable cell counting and/or by performing the MTT assay, which detects dehydrogenase activity in live, not dead, cells. The absorbance (A) was measured on a microplate reader at 570 nm. The absorbance is directly proportional to the number of living, metabolically active cells. […] If however, all of the tested concentrations produce PGs exceeding the respective reference level of effect (e.g., PG value of 50), then the highest tested concentration is assigned as the default value, which is preceded by a “>” sign. Minimum two individual experiments were carried out and each test point was performed in quadruplicate.

[2] = tested on: L1210 murine lymphocytic leukemia cell line; assay: as above; assay type: cell-based; settings: Mus musculus, 96 h; L1210, 4 days
Protocol: as §1, §2, §3

[3] = tested on: HeLa cervical carcinoma cell line; assay: as above; assay type: cell-based; settings: Homo sapiens
Protocol: as §1, §2, §3

[4] = tested on: SW 620 colon carcinoma cell line; assay: as above; assay type: cell-based; settings: Homo sapiens, 72 h; SW 620, 3 days
Protocol: as §1, §2, §3

[5] = tested on: MCF-7 breast carcinoma cell line; assay: as above; assay type: cell-based, human; settings: Homo sapiens, MCF7, 72 h; MCF-7, 3 days
Protocol: as §1, §2, §3

[6] = tested on: NCI-H460 lung carcinoma cell line; assay: as above; assay type: cell-based, human; settings: Homo sapiens, 72 h; NCI-H460, 3 days
Protocol: as §1, §2, §3

[7] = Inhibition of linoleic acid peroxidation (AAPH-induced); settings: 5 × 10^−5 M
Protocol: For initiating the lipid peroxidation free radical AAPH was used. Final solution in the UV cuvette consisted of 10 μL linoleate sodium solution (c = 16 mM), 0.93 mL phosphate buffer (c = 0.05 M), pH 7.4, thermostated at 37 °C. 50 μL AAPH solution (c = 40 mM) and 10 μL of the tested compounds were added. The experiment was performed at 37 °C under air. The oxidation of linoleic acid sodium salt was monitored at 234 nm. The assays were repeated at least in triplicate and the standard deviation of absorbance was less than 10% of the mean. Trolox was used under the same experimental conditions as a reference compound.

[8] = Interaction with the stable radical DPPH (reducing ability)
Protocol: To a solution of DPPH in absolute ethanol the appropriate volume of the compounds (50 or 100 µM final concentrations) dissolved in DMSO was added. The absorbance was recorded at 517 nm after 20 and 60 min at room temperature. The experiments were repeated at least in triplicate and the standard deviation of absorbance was less than 10% of the mean. NDGA was used under the same experimental conditions as a reference compound.

[9] = target: T1, soybean lipoxygenase (LOX) (Glycine max, UniProt P08170); assay: LOX inhibition study in vitro; assay type: biochemical; settings: for inhibition at 100 µM: 1 × 10^−4 M
T1 construct: purchased Sigma-Aldrich
T1 sequence (P08170 1-839): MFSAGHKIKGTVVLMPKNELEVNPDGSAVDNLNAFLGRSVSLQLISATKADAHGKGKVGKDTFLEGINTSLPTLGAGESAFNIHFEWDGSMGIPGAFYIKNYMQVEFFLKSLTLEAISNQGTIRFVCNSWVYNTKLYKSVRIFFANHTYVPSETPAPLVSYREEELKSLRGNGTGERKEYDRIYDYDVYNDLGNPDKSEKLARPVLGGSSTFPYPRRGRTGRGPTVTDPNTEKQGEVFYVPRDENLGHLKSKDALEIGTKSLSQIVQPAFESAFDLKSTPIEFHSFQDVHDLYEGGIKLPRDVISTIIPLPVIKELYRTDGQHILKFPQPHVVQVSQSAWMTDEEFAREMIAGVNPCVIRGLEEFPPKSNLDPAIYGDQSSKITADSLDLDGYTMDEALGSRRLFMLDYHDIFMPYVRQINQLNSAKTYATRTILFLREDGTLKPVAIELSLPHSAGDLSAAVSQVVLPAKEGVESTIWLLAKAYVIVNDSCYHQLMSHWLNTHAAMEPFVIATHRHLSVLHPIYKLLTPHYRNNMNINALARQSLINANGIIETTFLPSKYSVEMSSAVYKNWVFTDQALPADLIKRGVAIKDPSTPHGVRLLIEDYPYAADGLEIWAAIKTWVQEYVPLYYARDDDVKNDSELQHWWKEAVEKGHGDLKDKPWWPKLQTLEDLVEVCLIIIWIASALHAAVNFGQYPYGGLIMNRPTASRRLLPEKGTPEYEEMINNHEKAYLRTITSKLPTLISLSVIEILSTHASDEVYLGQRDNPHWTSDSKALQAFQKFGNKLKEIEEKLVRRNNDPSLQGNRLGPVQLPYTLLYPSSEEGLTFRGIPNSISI
Protocol: LOX inhibitory assay in vitro was accomplished as described previously. The test compounds (stock solutions 10 mM in DMSO) were incubated at room temperature with sodium linoleate (c = 0.1 mM) and 0.2 mL of LOX enzyme solution (1/9 × 10^−4 m/V in saline). The conversion of sodium linoleate to 13-hydroperoxylinoleic acid was measured at 234 nm and compared with the reference inhibitor. Several concentrations were used for the IC50 determination.

| IC50 [1] [µM] | IC50 [2] [µM] | IC50 [3] [µM] | IC50 [4] [µM] | IC50 [5] [µM] | IC50 [6] [µM] | inhibition at 100 µM [9] [%] | IC50 ([9]; values in parentheses in Table 3) [µM] | SMILES | LP Inhibition (%) [7] [%] | DPPH-reducing ability RA (%) ([8]; 1 × 10^−4 M, 20 min) | DPPH-reducing ability RA (%) ([8]; 1 × 10^−4 M, 60 min) | DPPH-reducing ability RA (%) ([8]; 5 × 10^−5 M, 20 min) | DPPH-reducing ability RA (%) ([8]; 5 × 10^−5 M, 60 min) |
| --- | --- | --- | --- | --- | --- | --- | --- | --- | --- | --- | --- | --- | --- |
| 27 ± 4 | 52 ± 3 | 4 ± 0.9 | 23 ± 9 | 24 ± 5 | > 1 | 19 | – | COc1cc(NC(C)CCCNC(=O)/C=C/c2ccccc2)c2ncccc2c1 (stereo not drawn) [3a, (E)-N-(4-(6-Methoxyquinolin-8-ylamino)pentyl)-3-phenylacrylamide] | 44 | 53 | 33 | 16 | 20 |
| 61 ± 30 | 106 ± 6 | > 125 | > 100 | 20 ± 3 | > 100 | 45 | – | COc1ccc(/C=C/C(=O)NCCCC(C)Nc2cc(OC)cc3cccnc23)cc1 (stereo not drawn) [3c, (E)-3-(4-Methoxyphenyl)-N-(4-(6-methoxyquinolin-8-ylamino)pentyl)acrylamide] | 70 | 40 | 43 | 22 | 27 |
| 20 ± 2 | 63 ± 2 | 36 ± 16 | > 100 | 4.3 ± 1 | > 100 | 17 | – | COc1cc(NC(C)CCCNC(=O)/C=C/c2ccc(Cl)cc2)c2ncccc2c1 (stereo not drawn) [3g, (E)-3-(4-Chlorophenyl)-N-(4-(6-methoxyquinolin-8-ylamino)pentyl)acrylamide] | 46 | 27 | 46 | – | – |
| 18 ± 15 | 66 ± 5 | 2.1 ± 2.1 | 0.3 ± 0.1 | 1.1 ± 0.6 | > 100 | 10 | – | COc1cc(NC(C)CCCNC(=O)/C=C/c2ccccc2F)c2ncccc2c1 (stereo not drawn) [3h, (E)-3-(2-Fluorophenyl)-N-(4-(6-methoxyquinolin-8-ylamino)pentyl)acrylamide] | 66 | – | – | – | – |
| 41 ± 15 | 68 ± 2 | 112 ± 11 | 64 ± 41 | 11 ± 2 | > 100 | 19 | – | COc1cc(NC(C)CCCNC(=O)/C=C/c2cccc(C(F)(F)F)c2)c2ncccc2c1 (stereo not drawn) [3i] | 32 | – | 8 | – | 13 |
| 14 ± 1 | 50 ± 18 | 25 ± 6 | > 100 | 3.9 ± 0.6 | > 100 | – | 50 | COc1cc(NC(C)CCCNC(=O)/C=C/c2ccc(C(F)(F)F)cc2)c2ncccc2c1 (stereo not drawn) [3j, (E)-N-(4-(6-Methoxyquinolin-8-ylamino)pentyl)-3-(4-(trifluoromethyl)phenyl)acrylamide] | 77 | 38 | 40 | – | – |
| 68 ± 29 | 92 ± 24 | 18 ± 1 | > 100 | 2.6 ± 0.5 | > 100 | 43 | – | COc1cc(NC(C)CCCNC(=O)/C=C/c2cc(C(F)(F)F)cc(C(F)(F)F)c2)c2ncccc2c1 (stereo not drawn) [3k, (E)-3-(3,5-Bis(trifluoromethyl)phenyl)-N-[4-(6-methoxyquinolin-8-ylamino)pentyl]acrylamide] | 65 | – | 50 | – | – |

The next lines start with the compound.

| SMILES | IC50 [1] [µM] | IC50 [2] [µM] | IC50 [3] [µM] | IC50 [4] [µM] | IC50 [5] [µM] | IC50 [6] [µM] | inhibition at 100 µM [9] [%] | IC50 ([9]; values in parentheses in Table 3) [µM] | LP Inhibition (%) [7] [%] | DPPH-reducing ability RA (%) ([8]; 1 × 10^−4 M, 20 min) | DPPH-reducing ability RA (%) ([8]; 1 × 10^−4 M, 60 min) | DPPH-reducing ability RA (%) ([8]; 5 × 10^−5 M, 20 min) | DPPH-reducing ability RA (%) ([8]; 5 × 10^−5 M, 60 min) |
| --- | --- | --- | --- | --- | --- | --- | --- | --- | --- | --- | --- | --- | --- |
| COc1cc(NC(C)CCCNC(=O)/C(C)=C/c2ccccc2)c2ncccc2c1 (stereo not drawn) [3b, (E)-N-(4-(6-Methoxyquinolin-8-ylamino)pentyl)-2-methyl-3-phenylacrylamide] | 55 ± 6 | 51 | 106 ± 26 | > 100 | 9.4 ± 0.2 | > 100 | 14 | – | 79 | 5 | 37 | 2 | 2 |
| COc1cc(NC(C)CCCNC(=O)/C=C/c2ccc(OC)c(OC)c2)c2ncccc2c1 (stereo not drawn) [3d, (E)-3-(3,4-Dimethoxyphenyl)-N-(4-(6-methoxyquinolin-8-ylamino)pentyl)acrylamide] | 90 ± 45 | 100 ± 34 | > 125 | > 100 | 16 ± 0.6 | > 100 | 43 | – | 73 | 34 | 31 | – | – |
| COc1cc(NC(C)CCCNC(=O)/C=C/c2cc(OC)c(OC)c(OC)c2)c2ncccc2c1 (stereo not drawn) [3e, (E)-N-(4-(6-Methoxyquinolin-8-ylamino)pentyl)-3-(3,4,5-trimethoxyphenyl)acrylamide] | 55 ± 16 | 22 ± 2 | > 125 | > 100 | 8.7 ± 0.3 | > 100 | 26 | – | 47 | 16 | 23 | 4 | 9 |
| COc1cc(NC(C)CCCNC(=O)/C=C/c2ccc3c(c2)OCO3)c2ncccc2c1 (stereo not drawn) [3f, (E)-3-(Benzo[d][1,3]dioxo-5-yl)-N-(4-(6-methoxyquinolin-8-ylamino)pentyl)acrylamide] | 37 ± 27 | 59 ± 2 | 72 ± 57 | > 100 | 6.9 ± 1.3 | > 100 | 34 | – | 87 | 11 | 33 | – | – |
| CC(Cc1ccc(O)c(O)c1)C(C)Cc1ccc(O)c(O)c1 (stereo not drawn) [NDGA, nordihydroguaiaretic acid, reference compound] | – | – | – | – | – | – | – | – | – | 89 | 94 | 83 | 87 |
| Cc1c(C)c2c(c(C)c1O)CCC(C)(C(=O)O)O2 (stereo not drawn) [Trolox, 6-hydroxy-2,5,7,8-tetramethylchroman-2-carboxylic acid, reference compound] | – | – | – | – | – | – | – | – | 88 | – | – | – | – |
